Experimental data as given in patent US20140127235A1, “TARGETING HK alpha FOR CONTROLLING BLOOD PRESSURE AND REGULATING ELECTROLYTE BALANCE” (UNIVERSITY OF FLORIDA RESEARCH FOUNDATION, INC., priority 2011, published 2014).

Legend:
Assay type in all cases: in vivo, mouse
HKα1 mRNA = experiment: Real time PCR of renal HKα1 mRNA expression in DOCP-treated mice; conditions: cortex, outer medulla and inner medulla, eight days after DOCP, normal diet
From the text: (§1) The principal mechanism of mineralocorticoid action is through modulation of target gene transcription.^15 Therefore, the next experiments evaluated the effect of DOCP on renal HKα1 and HKα2 mRNA expression. Real time quantitative PCR was used to investigate changes in steady state mRNA levels of H^+,K^+-ATPase α subunits, HKα1 and HKα2, in cortex, outer medulla, and inner medulla of control and DOCP-treated mice.
(§2) RNA was recovered from cortex, medulla, and inner medulla with TRIzol reagent (Invitrogen). RNA was treated with DNase 1 (Ambion DNA Free) and converted to cDNA using SuperScript III (Invitrogen). For real time quantitative PCR, 20 ng cDNA was used to quantify mRNA expression with TaqMan Gene Expression (Applied Biosystems) primer/probe sets for HKα1 (Atp4a, Mm00444423_m1), HKα2 (Atp12a, Mm0131809_m1), and β-actin (Actb, Mm00607939_s1). Cycle threshold (Ct) values were normalized to β-actin, and relative expression (control set to 100%) was calculated by the ΔΔCt method.^28

HKα2 mRNA = experiment: Real time PCR of renal HKα2 mRNA expression in DOCP-treated mice
From the text: as §1
Deficits in K^+ homeostasis have long been known to stimulate H^+,K^+-ATPase activity and HKα subunit expression. Therefore, the next experiments investigated whether the decreases in blood [K^+] observed in DOCP-treated mice were responsible for the stimulation of HKα2 mRNA expression. For this experiment, mice were fed a high K^+ diet and then left untreated (control) or given DOCP treatment. Body weight and blood electrolytes were measured eight days after treatment and kidneys were collected for analysis of HKα, and HKα2 mRNA expression by real time PCR. A high K^+ diet abrogated the effect of DOCP on body weight gain, blood [K^+], [Cl^−], and [HCO3^−] in mice (Table 3). Similarly, the stimulation of HKα, or HKα2 mRNA expression with DOCP was absent in mice fed a high K^+ diet (FIGS. 3C and 3D).
as §2

[1] = Effect of high K+ (5%) diet on physiological response of wild type mice to DOCP treatment; conditions: eight days after DOCP
Experimental: Deficits in K^+ homeostasis have long been known to stimulate H^+,K^+-ATPase activity and HKα subunit expression. […] For this experiment, mice were fed a high K^+ diet and then left untreated (control) or given DOCP treatment. Body weight and blood electrolytes were measured eight days after treatment and kidneys were collected for analysis of HKα, and HKα2 mRNA expression by real time PCR.
Mice were fed normal lab chow, given free access to water, and given an i.m. injection of 1.7 mg DOCP (Percorten V, Novartis Pharmaceuticals). For perfusion and expression studies, mice were sacrificed with Na^+ pentobarbital (i.p. 120 mg/kg) followed by cervical dislocation. For time course experiments, another group of animals were anesthetized with 3-4% isoflurane and aortic blood was collected into a heparinized syringe for immediate analysis of electrolytes and blood gases (Nova pHOx Plus analyzer, Nova Biomedical). For high K^+ diet studies, mice were given a normal, powdered diet (TD99131, Teklad) supplemented with KCl to equal 5% K^+ which was then made as a gel. Half of the mice were treated with DOCP. Blood and tissues were collected as in the time course experiments. For urinalysis experiments, mice were housed in metabolic cages for thirteen days and fed a normal gel diet with free access to a water bottle. On day five, mice were treated with DOCP as above. Urine and feces were collected daily. Urine electrolytes were measured on a clinical analyzer (Nova 16 analyzer, Nova Biomedical) and fecal electrolytes were measured on a digital flame photometer (Model 2655-00, Cole-Parmer).

[2] = Radiotelemetry (blood pressure, heart rate, locomotor activity) in WT and HKα1,2−/− mice, control and DOCP; conditions: for Mean arterial pressures / Heart rate / Locomotor activity: DOCP
From the text: Age matched, male C56BL/6 WT and C56BL/6 HKα1,2^−/− mice were anesthetized using 5% isoflurane, and radiotelemetry transmitters (PA-C10, Data Sciences, St. Paul, Minn.) were implanted under sterile conditions (1-3% continuous isoflurane). The catheter was placed in the left carotid artery and the housing of the transmitter was implanted subcutaneously on the animal's right flank. Mice were allowed to recover for a period of at least 14 days prior to recordings. These mice were not subject to metabolic cage experiments or blood and tissue collections. Mice were fed a normal lab chow (Teklad 2018, 0.2% Na and 0.5% K) and allowed free access to water. DOCP treated mice received an intramuscular injection of 1.7 mg DOCP (Percorten V, Novartis Pharmaceuticals) and were fed the normal gel diet described previously supplemented with NaCl to equal 0.4% Na^+ ad libitum for 8 days with free access to water. Radiotelemetry recordings were performed one week before and one week after DOCP treatment. At the time of the control recording, mice ranged in age from 15-25 weeks. Recording were made for 2 minutes at the beginning of each hour or for 2 minutes every 10 minutes for 48 hours. Moving averages were calculated for each hour. Comparisons of systolic BP, HR, and LA were made for the main effects 1) DOCP treated versus untreated and 2) WT versus HKα1,2^−/− mice. Differences between the daytime (06:00-17:59) and nighttime (18:00-05:59) values for these parameters were also compared.
Radiotelemetry was performed in order to assess genotypic differences in systolic BP, HR and LM during normal and DOCP treatment. Example 48 hr tracings of systolic BP, HR, and LA comparing WT and HKα1,2^−/− during normal and DOCP treatment are shown in FIG. 13.

SMILES: CC(C)(C)C(=O)OCC(=O)[C@H]1CC[C@H]2[C@@H]3CCC4=CC(=O)CC[C@]4(C)[C@H]3CC[C@]12C [DOCP, desoxycorticosterone pivalate]
- HKα1 mRNA expression compared to control (HKα1 mRNA): not significantly altered
- HKα2 mRNA expression (HKα2 mRNA; cortex, eight days after DOCP, normal diet): did not affect
- HKα2 mRNA levels, increase (HKα2 mRNA; inner medulla, eight days after DOCP, normal diet): as much as five-fold
- stimulation of HKα1 or HKα2 mRNA expression with DOCP (HKα2 mRNA; mice fed a high K+ diet): absent
- HKα2 mRNA levels, increase (HKα2 mRNA; outer medulla, eight days after DOCP, normal diet): more than two-fold
- Blood [Cl−] [1]: 121 ± 1.30 mM
- Blood [HCO3−] [1]: 18.2 ± 1.01 mM
- Blood [K+] [1]: 4.30 ± 0.18 mM
- Blood [Na+] [1]: 151 ± 0.88 mM
- Body weight change [1]: -0.17 ± 0.27 g
- effect on daytime or nighttime systolic BP ([2]; HKα1,2−/− mice): failed to significantly increase
- Mean arterial pressures ([2]; HKα1,2−/− mice, Daytime (Inactive)): 112.7 ± 1.8 mmHg
- Heart rate ([2]; HKα1,2−/− mice, Daytime): 554.8 ± 21.4 beats/min
- Locomotor activity ([2]; HKα1,2−/− mice, Daytime): 3.267 ± 0.603
- Mean arterial pressures ([2]; HKα1,2−/− mice, Nighttime (Active)): 118.5 ± 2.4 mmHg
- Heart rate ([2]; HKα1,2−/− mice, Nighttime): 580.5 ± 20.1 beats/min
- Locomotor activity ([2]; HKα1,2−/− mice, Nighttime): 5.410 ± 1.078
- effect on locomotor activity (LA) ([2]; WT and HKα1,2−/− mice): did not significantly affect
- effect on systolic BP during the day and night ([2]; WT mice): significantly increased
- effect on HR during the night ([2]; WT mice, DOCP treatment): significant decrease
- Mean arterial pressures ([2]; WT mice, Daytime (Inactive)): 112.9 ± 2.3 mmHg
- Heart rate ([2]; WT mice, Daytime): 496.7 ± 17.5 beats/min
- Locomotor activity ([2]; WT mice, Daytime): 3.913 ± 0.407
- Mean arterial pressures ([2]; WT mice, Nighttime (Active)): 122.5 ± 2.9 mmHg
- Heart rate ([2]; WT mice, Nighttime): 533.5 ± 17.2 beats/min
- Locomotor activity ([2]; WT mice, Nighttime): 7.036 ± 0.735
